The source of these data is paper PMC6838142, “Nano-Antagonist Alleviates Inflammation and Allows for MRI of Atherosclerosis” (Nanotheranostics, 2019).

The test deals with RAW cells. The experiment in a line: Fluorescence microscopy of binding and uptake in RAW cells. The format is cell-based, mouse. An excerpt:
Figure 1 Screening identifies CCTV as an anti-inflammatory nanoparticle with high affinity for CC chemokine receptor 2. A) A screening of a small library of nanoparticles in lipopolysaccharide (LPS)-stimulated macrophage reporter cells (RAW-Blue) identified CCTV, which downregulates nuclear factor-kappa B (NF-κB) activity. Each point on the plot represents a relative activity of NF-κB (X-coordinate) and corresponding nanoparticle content per mg of cell protein (Y-coordinate) calculated from nanoparticle fluorescence. […] Dexamethasone (Dex) is an NF-κB inhibitor and was used as a positive control. Vehicle-treated and unstained (US) cells served as a negative control. B) CCTV binding to the cell surface was validated in RAW cells using fluorescence microscopy. The cells were stained at 4 °C or room temperature for 30 min with CCTV or vehicle nanoparticles (sudo-colored green). Lysosomes were visualized after staining with LAMP1 antibody (red). Nuclei were stained using Hoechst 33342 (blue). C) The uptake of CCTV was inhibited in the presence of 5 µM cytochalasin D (cyto D). DMSO served as vehicle control. Calcein AM was used for whole cell staining. D) CCTV binding to a receptor on the cell surface was studied by flow cytometry in the presence and absence of the excess (1 mM) of the free peptide. E) The Basic Local Alignment Search Tool (BLAST) analysis determined that CCTV peptide sequence repeats in mouse and human CC chemokine receptor family. Only the first 50 amino acids are shown. F) Chemical structure of CCTV and its mirror analog VTCC and their possible conjugation strategies that include N- (N-term.) and C-terminus (C-term.) as well as sulfhydryl attachment. […]
For a targeted nanotherapy to be effective, the nanoparticles must have affinity to a specific cell type, usually determined by cell surface binding. […] Thus, we used the mouse macrophage reporter cell line RAW-Blue that allowed for monitoring activity of Nuclear Factor-kappa B (NF-kB) and also enabled In vitro quantitation of nanoparticle binding to the cell surface. […]

Take CCTV: the “uptake in presence of cytochalasin D” value (5 µM cytochalasin D, DMSO vehicle control) is listed as “inhibited”. Moreover, the “cell-surface binding at 4oC” value (RAW cells, 4 °C, 30 min, vs vehicle nanoparticles) is listed as “rapidly bound to the cell surface”. The “uptake at room temperature” value (RAW cells, room temperature, LAMP1 co-staining) is listed as “mediated by endocytosis”.
